Laboratory results reported in US10065971B2 (priority 2014, dated 2018).
Structures can show the parent of a compound that is named as a salt.

Target: human σ1 receptor (Homo sapiens, UniProt Q99720)
Test: biochemical
Parameters: μ and σ1 dual binding: scale not given here
Conditions: combined class from Ki at human σ1 receptor (A1) and Ki at human μ-opioid receptor (A2), radioligand binding; for Ki: read-out: μ and σ1 dual binding
Protocol: Biological Activity Pharmacological Study Human σ1 Receptor Radioligand Assay
The assay was carried out with 7 μg of membrane suspension, 5 nM of [^3H](+)-pentazocine in either absence or presence of either buffer or 10 μM Haloperidol for total and non-specific binding, respectively. Binding buffer contained Tris-HCl 50 mM at pH 8. Plates were incubated at 37° C. for 120 minutes. After the incubation period, the reaction mix was then transferred to MultiScreen HTS, FC plates (Millipore), filtered and plates were washed 3 times with ice-cold 10 mM Tris-HCL (pH7.4). Filters were dried and counted at approximately 40% efficiency in a MicroBeta scintillation counter (Perkin-Elmer) using EcoScint liquid scintillation cocktail

Sequence of human σ1 receptor (Q99720 whole entry): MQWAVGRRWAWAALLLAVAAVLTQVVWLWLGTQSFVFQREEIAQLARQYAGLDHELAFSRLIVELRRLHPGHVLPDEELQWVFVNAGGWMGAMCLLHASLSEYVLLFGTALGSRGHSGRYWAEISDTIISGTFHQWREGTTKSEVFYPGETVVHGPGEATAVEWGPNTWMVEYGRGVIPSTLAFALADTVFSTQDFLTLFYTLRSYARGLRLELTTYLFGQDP

Ki | SMILES | μ and σ1 dual binding
> 500 nM | CC1CN(C(=O)c2ccccc2)CC2(CCN(CCc3ccc(S(N)(=O)=O)cc3)CC2)O1 (stereo not drawn) [Example 75, 4-(2-(4-benzoyl-2-methyl-1-oxa-4,9-diazaspiro[5.5]undecan-9-yl)ethyl)benzene-sulfonamide] | 
> 500 nM | CC1CN(C(=O)c2ccccc2)CC2(CCN(CC(=O)N3CCCCC3)CC2)O1 (stereo not drawn) [Example 90, 2-(4-benzoyl-2-methyl-1-oxa-4,9-diazaspiro[5.5]undecan-9-yl)-1-(piperidin-1-yl)ethanone hydrochloride] | 
 | C[C@@H]1CN(C(=O)c2c(F)cccc2F)CC2(CCN(CCc3ncccc3F)CC2)O1 [Example 145, (R)-(2,6-difluorophenyl)(9-(2-(3-fluoropyridin-2-yl)ethyl)-2-methyl-1-oxa-4,9-diazaspiro[5.5]undecan-4-yl)methanone] | ++
 | O=C(c1cscn1)N1CCOC2(CCN(CCc3ccccc3)CC2)C1 [Example 12, (9-phenethyl-1-oxa-4,9-diazaspiro[5.5]undecan-4-yl)(thiazol-4-yl)methanone] | ++
 | Cl.O=C(Cc1ccccn1)N1CCOC2(CCN(CCc3ccccc3)CC2)C1 [Example 19, 1-(9-phenethyl-1-oxa-4,9-diazaspiro[5.5]undecan-4-yl)-2-(pyridin-2-yl)ethanone hydrochloride] | ++
 | CC1CN(C(=O)c2ccccc2)CC2(CCN(CCc3ccccn3)CC2)O1.Cl (stereo not drawn) [Example 87, (2-methyl-9-(2-(pyridin-2-yl)ethyl)-1-oxa-4,9-diazaspiro[5.5]undecan-4-yl)(phenyl)methanone hydrochloride] | ++
 | C[C@@H]1CN(C(=O)c2ccccc2F)CC2(CCN(CCc3ncccc3F)CC2)O1 [Example 143, (R)-(2-fluorophenyl)(9-(2-(3-fluoropyridin-2-yl)ethyl)-2-methyl-1-oxa-4,9-diazaspiro[5.5]undecan-4-yl)methanone] | ++
 | COc1cccnc1CCN1CCC2(CC1)CN(C(=O)c1ccccc1F)CC1(CC1)O2 [Example 130, 12-[(2-fluorophenyl)carbonyl]-8-(2-(3-methoxypyridin-2-yl)ethyl)-4-oxa-8,12-diazadispiro[2.1.5.3]tridecane] | ++
 | Cl.O=C(Cc1cccnc1)N1CCOC2(CCN(CCc3ccccc3)CC2)C1 [Example 15, 1-(9-phenethyl-1-oxa-4,9-diazaspiro[5.5]undecan-4-yl)-2-(pyridin-3-yl)ethanone hydrochloride] | ++
 | Cl.O=C(c1nccs1)N1CCOC2(CCN(CCc3ccccc3)CC2)C1 [Example 13, (9-phenethyl-1-oxa-4,9-diazaspiro[5.5]undecan-4-yl)(thiazol-2-yl)methanone hydrochloride] | ++
 | CC1CN(C(=O)c2ccccc2)CC2(CCN(CCc3ncccc3C(F)(F)F)CC2)O1.Cl (stereo not drawn) [Example 41, (2-methyl-9-(2-(3-(trifluoromethyl)pyridin-2-yl)ethyl)-1-oxa-4,9-diazaspiro[5.5]undecan-4-yl)(phenyl)methanone hydrochloride] | ++
 | C[C@H]1CN(C(=O)c2ccccc2F)CC2(CCN(CCc3ncccc3F)CC2)O1 [Example 144, (S)-(2-fluorophenyl)(9-(2-(3-fluoropyridin-2-yl)ethyl)-2-methyl-1-oxa-4,9-diazaspiro[5.5]undecan-4-yl)methanone] | ++
 | CS(=O)(=O)Nc1cccc(CCN2CCC3(CC2)CN(C(=O)c2ccccc2)CCO3)c1 [Example 114, N-(3-(2-(4-benzoyl-1-oxa-4,9-diazaspiro[5.5]undecan-9-yl)ethyl)phenyl)methanesulfonamide] | ++
> 500 nM | O=C(Nc1cccnc1)N1CCOC2(CCN(CCc3ccccc3)CC2)C1 [Example 121, 9-phenethyl-N-(pyridin-3-yl)-1-oxa-4,9-diazaspiro[5.5]undecane-4-carboxamide] | 
> 500 nM | CC1CN(C(=O)c2ccc(F)cc2F)CC2(CCN(CCc3ncccc3F)CC2)O1 (stereo not drawn) [Example 148, (2,4-difluorophenyl)(9-(2-(3-fluoropyridin-2-yl)ethyl)-2-methyl-1-oxa-4,9-diazaspiro[5.5]undecan-4-yl)methanone] | 
 | CC1CN(C(=O)c2ccc(Cl)cn2)CC2(CCN(CCc3csc(N)n3)CC2)O1.Cl (stereo not drawn) [Example 102, (9-(2-(2-aminothiazol-4-yl)ethyl)-2-methyl-1-oxa-4,9-diazaspiro[5.5]undecan-4-yl)(5-chloropyridin-2-yl)methanone hydrochloride] | ++
 | Cl.O=C(c1cncs1)N1CCOC2(CCN(CCc3ccccc3)CC2)C1 [Example 14, (9-phenethyl-1-oxa-4,9-diazaspiro[5.5]undecan-4-yl)(thiazol-5-yl)methanone hydrochloride] | ++
 | C[C@H]1CN(C(=O)c2c(F)cccc2F)CC2(CCN(CCc3ncccc3F)CC2)O1 [Example 146, (S)-(2,6-difluorophenyl)(9-(2-(3-fluoropyridin-2-yl)ethyl)-2-methyl-1-oxa-4,9-diazaspiro[5.5]undecan-4-yl)methanone] | ++
> 500 nM | CC1CN(C(=O)c2ccccc2)CC2(CCN(CC(=O)N3CCOCC3)CC2)O1 (stereo not drawn) [Example 89, 2-(4-benzoyl-2-methyl-1-oxa-4,9-diazaspiro[5.5]undecan-9-yl)-1-morpholinoethanone hydrochloride] | 
 | Cl.O=C(c1cccnc1)N1CCOC2(CCN(CCc3ccccc3)CC2)C1 [Example 5, (9-phenethyl-1-oxa-4,9-diazaspiro[5.5]undecan-4-yl)(pyridin-3-yl)methanone hydrochloride] | ++
> 500 nM | CC1CN(C(=O)c2ccccc2F)CC2(CCN(CCc3ncccc3F)CC2)O1 (stereo not drawn) [Example 59, (2-fluorophenyl)(9-(2-(3-fluoropyridin-2-yl)ethyl)-2-methyl-1-oxa-4,9-diazaspiro[5.5]undecan-4-yl)methanone dihydrochloride] | 
 | CC(=O)Nc1cccc(CCN2CCC3(CC2)CN(C(=O)c2ccccc2)CCO3)c1 [Example 111, N-(3-(2-(4-benzoyl-1-oxa-4,9-diazaspiro[5.5]undecan-9-yl)ethyl)phenyl)acetamide] | ++
 | CN(C(=O)N1CCOC2(CCN(CCc3ccccc3)CC2)C1)c1ccccn1.Cl [Example 119, N-methyl-9-phenethyl-N-(pyridin-2-yl)-1-oxa-4,9-diazaspiro[5.5]undecane-4-carboxamide hydrochloride] | ++
 | N#Cc1ccccc1C(=O)N1CC2(CCN(CCc3ncccc3F)CC2)OC2(CC2)C1 [Example 135, 2-(8-(2-(3-fluoropyridin-2-yl)ethyl)-4-oxa-8,12-diazadispiro[2.1.5.3]tridecane-12-carbonyl)benzonitrile] | ++
> 500 nM | O=C(C1CCOCC1)N1CCOC2(CCN(CCc3ccccc3)CC2)C1 [Example 18, (9-phenethyl-1-oxa-4,9-diazaspiro[5.5]undecan-4-yl)(tetrahydro-2H-pyran-4-yl)methanone] | 
 | CC1CN(C(=O)c2ccccc2)CC2(CCN(CCc3ccc(C(F)(F)F)cn3)CC2)O1.Cl (stereo not drawn) [Example 42, (2-methyl-9-(2-(5-(trifluoromethyl)pyridin-2-yl)ethyl)-1-oxa-4,9-diazaspiro[5.5]undecan-4-yl)(phenyl)methanone hydrochloride] | ++
 | CN(C)C(=O)N1CCOC2(CCN(CCc3ccccc3)CC2)C1 [Example 117, N,N-dimethyl-9-phenethyl-1-oxa-4,9-diazaspiro[5.5]undecane-4-carboxamide] | ++
 | CCC(=O)N1CC(C)OC2(CCN(CCc3ccccc3F)CC2)C1.Cl (stereo not drawn) [Example 91, 1-(9-(2-fluorophenethyl)-2-methyl-1-oxa-4,9-diazaspiro[5.5]undecan-4-yl)propan-1-one hydrochloride] | ++
 | CC1CN(C(=O)c2ccccc2)CC2(CCN(CCc3ccccc3NC(N)=O)CC2)O1 (stereo not drawn) [Example 110, 1-(2-(2-(4-benzoyl-2-methyl-1-oxa-4,9-diazaspiro[5.5]undecan-9-yl)ethyl)phenyl)urea] | ++
> 500 nM | COC(=O)CCN1CCC2(CC1)CN(C(=O)c1c(F)cccc1F)CC1(CC1)O2 [Example 140, methyl 3-(12-(2,6-difluorobenzoyl)-4-oxa-8,12-diazadispiro[2.1.5.3]tridecan-8-yl)propanoate] | 
